From US20250195524A1, “PYRIMIDO-PYRIDAZINONE COMPOUND AS TOLL-LIKE RECEPTOR AGONIST” (SHANGHAI VISONPHARMA CO., LTD., priority 2022, published 2025)

molecular target: T1, human TLR8 (Homo sapiens, UniProt Q9NR97); assay: HEK-Blue hTLR8 SEAP reporter gene agonism assay; assay type: cell-based; conditions: HEK-Blue hTLR8 cells, SEAP (Quanti-blue, 650 nm), 16-22 hours incubation
T1 construct: host or cells: HEK-Blue hTLR8 (HEK293-derived reporter cells)
T1 sequence (Q9NR97 27-1041): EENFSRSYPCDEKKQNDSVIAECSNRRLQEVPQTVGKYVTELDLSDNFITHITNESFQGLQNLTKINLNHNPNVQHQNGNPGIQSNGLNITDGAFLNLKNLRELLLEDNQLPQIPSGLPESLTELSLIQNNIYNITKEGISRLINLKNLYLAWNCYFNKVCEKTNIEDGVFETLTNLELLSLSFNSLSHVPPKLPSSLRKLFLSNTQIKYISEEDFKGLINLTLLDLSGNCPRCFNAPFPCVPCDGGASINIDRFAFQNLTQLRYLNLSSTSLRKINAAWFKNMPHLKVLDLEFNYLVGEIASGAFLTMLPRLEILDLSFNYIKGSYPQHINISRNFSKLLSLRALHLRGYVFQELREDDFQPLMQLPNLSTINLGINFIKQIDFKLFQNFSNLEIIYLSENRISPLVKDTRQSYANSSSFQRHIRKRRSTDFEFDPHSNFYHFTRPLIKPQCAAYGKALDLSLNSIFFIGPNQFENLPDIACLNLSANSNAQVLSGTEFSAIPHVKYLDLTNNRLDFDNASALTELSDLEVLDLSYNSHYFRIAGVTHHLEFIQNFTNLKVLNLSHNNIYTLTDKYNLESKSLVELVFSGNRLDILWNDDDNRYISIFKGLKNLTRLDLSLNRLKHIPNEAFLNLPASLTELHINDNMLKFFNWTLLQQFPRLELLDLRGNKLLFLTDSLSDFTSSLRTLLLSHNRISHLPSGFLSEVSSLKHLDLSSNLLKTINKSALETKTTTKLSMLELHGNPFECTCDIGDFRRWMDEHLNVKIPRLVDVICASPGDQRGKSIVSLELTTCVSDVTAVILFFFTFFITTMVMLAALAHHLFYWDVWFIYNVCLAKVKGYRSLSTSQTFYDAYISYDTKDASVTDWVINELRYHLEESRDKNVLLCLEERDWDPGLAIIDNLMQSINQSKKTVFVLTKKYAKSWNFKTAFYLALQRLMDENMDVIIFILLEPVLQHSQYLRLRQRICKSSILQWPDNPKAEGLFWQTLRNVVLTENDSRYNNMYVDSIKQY
Description: The agonistic activity of the compounds of the present invention on TLR7 or TLR8 was evaluated using HEK-Blue™ cells stably expressing human TLR7 or TLR8. And the agonistic activity was assayed using their ability to induce the SEAP reporter gene under the control of the IFN-β minimal promoter fused to five NF-κB and ap-1 binding sites, specifically as follows:
HEK-Blue™ hTLR7 (Invivogen, 80,000 cells per well) or HEK-Blue™ hTLR8 (Invivogen, 60,000 cells per well) was added to a 96-well cell culture plate, the compound to be tested is added whereafter, and the final concentration of the compound(s) to be tested in the medium ranged from 0.001 to 36 μM, then incubated for 16-22 hours. SEAP levels in the cell culture medium were detected using HEK-Blue assay reagent Quanti-blue (Invivogen) according to the manufacturer's instructions. Neo2 Multifunctional Enzyme Labeler (Bio-tek) was used to determine the light absorption at 650 nm. GraphPad Prism was utilized to calculate the EC50, which is the half effective concentration of the drug.

Row | SMILES | EC50
1 | CCCCNc1nc(N)nc2cnn(Cc3ccc(C(=O)N4CCN(C)CC4)cc3)c(=O)c12 [Compound I-3, 2-amino-4-(butylamino)-6-(4-(4-methylpiperazine-1-carbonyl)benzyl)pyrimido[4,5-d]pyridazin-5(6H)-one] | 0.615 µM
2 | COCCNc1nc(N)nc2cnn(Cc3ccc(CN4CCCC4)cc3)c(=O)c12 [Compound I-4, 2-amino-4-((2-methoxyethyl)amino)-6-(4-(pyrrolidin-1-ylmethyl)benzyl)pyrimido[4,5-d]pyridazin-5(6H)-one] | 0.403 µM
3 | CCCCNc1nc(N)nc2cnn(Cc3ccc(CN4CCCC4)cc3)c(=O)c12 [Compound I-5, 2-amino-4-(butylamino)-6-(4-(pyrrolidin-1-ylmethyl)benzyl)pyrimido[4,5-d]pyridazin-5(6H)-one] | 0.149 µM
4 | CCCCNc1nc(N)nc2cnn(Cc3ccc(CN(C)C)cc3)c(=O)c12 [Compound I-7, 2-amino-4-(butylamino)-6-(4-((dimethylamino)methyl)benzyl)pyrimido[4,5-d]pyridazin-5(6H)-one] | 0.153 µM
5 | CCCCNc1nc(N)nc2cnn(Cc3ccc4c(c3)CCNC4)c(=O)c12 [Compound I-8, 2-amino-4-(butylamino)-6-((1,2,3,4-tetrahydroisoquinolin-6-yl)methyl)pyrimido[4,5-d]pyridazin-5(6H)-one] | 0.229 µM
6 | CCCCNc1nc(N)nc2cnn(Cc3ccc(CN4CC5CC(C4)N5)cc3)c(=O)c12 [Compound I-11, 6-(4-((3,6-Diazabicyclo[3.1.1]heptan-3-yl)methyl)benzyl)-2-amino-4-(butylamino)pyrimido[4,5-d]pyridazin-5(6H)-one] | 0.267 µM
7 | CCCCNc1nc(N)nc2cnn(Cc3ccc(CN4CCC5(CNC5)C4)cc3)c(=O)c12 [Compound I-12, 6-(4-((2,6-Diazaspiro[3.4]octan-6-yl)methyl)benzyl)-2-amino-4-(butylamino)pyrimido[4,5-d]pyridazin-5(6H)-one] | 0.185 µM
8 | CCCCNc1nc(N)nc2cnn(Cc3ccc4c(c3)CCN(C(C)C)C4)c(=O)c12 [Compound I-13, 2-amino-4-(butylamino)-6-((2-isopropyl-1,2,3,4-tetrahydroisoquinolin-6-yl)methyl)pyrimido[4,5-d]pyridazin-5(6H)-one] | 0.549 µM
9 | CCCCNc1nc(N)nc2cnn(Cc3ccc(CN4CCCC4)cc3OC)c(=O)c12 [Compound I-14, 2-amino-4-(butylamino)-6-(2-methoxy-4-(pyrrolidin-1-ylmethyl)benzyl)pyrimido[4,5-d]pyridazin-5(6H)-one] | 0.365 µM
10 | CCCCNc1nc(N)nc2cnn(Cc3ccc(CN4CCCC4)cc3F)c(=O)c12 [Compound I-15, 2-amino-4-(butylamino)-6-(2-fluoro-4-(pyrrolidin-1-ylmethyl)benzyl)pyrimido[4,5-d]pyridazin-5(6H)-one] | 0.326 µM
11 | CCCCNc1nc(N)nc2cnn(Cc3ccc(CN4CCCC4)nc3OC)c(=O)c12 [Compound I-16, 2-amino-4-(butylamino)-6-((2-methoxy-6-(pyrrolidin-1-ylmethyl)pyridin-3-yl)methyl)pyrimido[4,5-d]pyridazin-5(6H)-one] | 0.354 µM
12 | CCCCNc1nc(N)nc2cnn(Cc3ccc(CN4CCCC4)c(OC)c3)c(=O)c12 [Compound I-17, 2-amino-4-(butylamino)-6-(3-methoxy-4-(pyrrolidin-1-ylmethyl)benzyl)pyrimido[4,5-d]pyridazin-5(6H)-one] | 0.368 µM
13 | CCCCNc1nc(N)nc2cnn(Cc3ccc(CN4CCCC4)c(F)c3)c(=O)c12 [Compound I-18, 2-amino-4-(butylamino)-6-(3-fluoro-4-(pyrrolidin-1-ylmethyl)benzyl)pyrimido[4,5-d]pyridazin-5(6H)-one] | 0.218 µM
14 | CCCCNc1nc(N)nc2cnn(Cc3ccc(CN(CCC)CCO)cc3)c(=O)c12 [Compound I-21] | 0.388 µM
15 | CCCCNc1nc(N)nc2cnn(Cc3ccc(CN(CCO)CCO)cc3)c(=O)c12 [Compound I-23, 2-amino-6-(4-((bis(2-hydroxyethyl)amino)methyl)benzyl)-4-(butylamino)pyrimido[4,5-d]pyridazin-5(6H)-one] | 0.222 µM
16 | CCC[C@@H](C)Nc1nc(N)nc2cnn(Cc3ccc(CN4CC5(COC5)C4)cc3OC)c(=O)c12 [Compound I-43, (R)-6-(4-((2-oxo-6-azaspiro[3.3]heptan-6-yl)methyl)-2-methoxybenzyl)-2-amino-4-(pentan-2-ylamino)pyrimido[4,5-d]pyridazin-5(6H)-one] | 0.233 µM
17 | CCC[C@@H](C)Nc1nc(N)nc2cnn(Cc3ccc(CNCCO)cc3OC)c(=O)c12 [Compound I-44] | 0.112 µM

Results, then the compound that gave them:

Row | EC50 | SMILES
18 | 0.107 µM | CCCC(C)Nc1nc(N)nc2cnn(Cc3ccc(CN4CCCC4)cc3)c(=O)c12 (stereo not shown) [Compound I-1, 2-amino-4-(pentan-2-ylamino)-6-(4-(pyrrolidin-1-ylmethyl)benzyl)pyrimido[4,5-d]pyridazin-5(6H)-one]
19 | 0.102 µM | CCCCNc1nc(N)nc2cnn(Cc3ccc(C(=O)N4CCNCC4)cc3)c(=O)c12 [Compound I-2, 2-amino-4-(butylamino)-6-(4-(piperazine-1-carbonyl)benzyl)pyrimido[4,5-d]pyridazin-5(6H)-one]
20 | 0.183 µM | CCCCNc1nc(N)nc2cnn(Cc3ccc(CN4CCNCC4)cc3)c(=O)c12 [Compound I-9, 2-amino-4-(butylamino)-6-(4-(piperazin-1-ylmethyl)benzyl)pyrimido[4,5-d]pyridazin-5(6H)-one]
21 | 0.569 µM | CCCCNc1nc(N)nc2cnn(Cc3ccc(CNC4CC4)cc3)c(=O)c12 [Compound I-10, 2-amino-4-(butylamino)-6-(4-((cyclopropylamino)methyl)benzyl)pyrimido[4,5-d]pyridazin-5(6H)-one]
22 | 0.322 µM | CCC[C@@H](C)Nc1nc(N)nc2cnn(Cc3ccc(CN(CCC)CCO)cc3)c(=O)c12 [Compound I-26]
23 | 0.286 µM | CCC[C@@H](C)Nc1nc(N)nc2cnn(Cc3ccc(CN(CCO)CCO)cc3)c(=O)c12 [Compound I-27, (R)-2-amino-6-(4-((bis(2-hydroxyethyl)amino)methyl)benzyl)-4-(pentan-2-ylamino)pyrimido[4,5-d]pyridazin-5(6H)-one]
24 | 0.101 µM | CCC[C@@H](C)Nc1nc(N)nc2cnn(Cc3ccc(CN4CC5(COC5)C4)cc3)c(=O)c12 [Compound I-41, (R)-6-(4-((2-oxo-6-azaspiro[3.3]heptan-6-yl)methyl)benzyl)-2-amino-4-(pentan-2-ylamino)pyrimido[4,5-d]pyridazin-5(6H)-one]
25 | 0.074 µM | CCC[C@@H](C)Nc1nc(N)nc2cnn(Cc3ccc(CNCCO)cc3)c(=O)c12 [Compound I-42]
26 | 0.169 µM | CCC[C@@H](C)Nc1nc(N)nc2cnn(Cc3ccc(C4CCNCC4)cc3)c(=O)c12 [Compound I-55, (R)-2-amino-4-(pentan-2-ylamino)-6-(4-(piperidin-4-yl)benzyl)pyrimido[4,5-d]pyridazin-5(6H)-one]
27 | 0.07 µM | CCC[C@@H](C)Nc1nc(N)nc2cnn(Cc3ccc(C(=O)N4CCNCC4)cc3)c(=O)c12 [Compound I-56, (R)-2-amino-4-(pentan-2-ylamino)-6-(4-(piperazine-1-carbonyl)benzyl)pyrimido[4,5-d]pyridazin-5(6H)-one]
28 | 0.073 µM | CCC[C@@H](CO)Nc1nc(N)nc2cnn(Cc3ccc(C(=O)N4CCNCC4)cc3)c(=O)c12 [Compound I-58, (S)-2-amino-4-((1-hydroxypentan-2-yl)amino)-6-(4-(piperazine-1-carbonyl)benzyl)pyrimido[4,5-d]pyridazin-5(6H)-one]
